The assay has as its system S. aureus Col8A (Meth^S)(lac^−). In words: Broth microdilution MIC (NCCLS). It is filed as cell-based. The conditions noted are these: Staphylococcus aureus. The procedure, abridged:
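In this NCCLS microdilution, growth inhibition was scored after a 24 h, 35° C incubation in MHB. Inocula (5×10^5 CFU/mL final) came from early log-phase cultures, except enterococci, which were used directly from overnight cultures.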

The structures appear in SMILES notation. Values after ≈ are worked out from the molar mass of the structure shown.

Regarding `NCCSCc1cnccc1SC1=C(C(=O)O)N2C(=O)[C@@H](NC(=O)/C(=N\O)c3cccc(N)n3)[C@H]2SC1` [Cmpd 24, (7R)-7-[(Z)-2-(2-aminopyrid-6-yl)-2-(hydroxyimino)acetamido]-3-[3-(2-aminoethylthiomethyl)pyrid-4-ylthio]-3-cephem-4-carboxylic acid], it took 0.5 µg/mL (≈ 0.89 µM) to inhibit growth (MIC).

By MIC is commonly meant the lowest concentration that inhibits growth of the organism.

For the origin of these results see patent publication US6723716B1, “7-acylamino-3-heteroarylthio-3-cephem carboxylic acid antibiotics and prodrugs thereof” (Essential Therapeutics, Inc., priority 1999, dated 2004).
